Reference: article PMC4052532, “Biodistribution and SPECT Imaging Study of ^99mTc Labeling NGR Peptide in Nude Mice Bearing Human HepG2 Hepatoma” (BioMed Research International, 2014)
Like-named read-outs stand apart in the source and are kept apart here. Where a SMILES comes first, the peptide text is derived from it. Bridges are numbered along the chain shown (N, C = ends).

Columns and labels:
Biodistribution studies = type: in vivo; settings: female, BALB/c nude, mouse, total radioactivity; for tissue uptake at 1 h / tissue uptake at 4 h / tissue uptake at 8 h / tissue uptake at 12 h: n = 5, mean ± SD; for tissue uptake at 4 h: 4 h postinjection; for tissue uptake at 8 h: 8 h postinjection; for tissue uptake at 12 h: 12 h postinjection
Experimental: HepG2 cells were grown in high glucose DMEM culture medium. All cell lines were cultured in medium supplemented with 10% (v/v) fetal bovine serum (Gibco, USA), 1% mycillin, and 1% Glutamine (Beyotime, China) at 37°C in a humidified atmosphere with 5% CO2. Using female BALB/c nude mice (4–6 weeks of age), HepG2 tumor model was established by subcutaneous injection of 2 × 10^6 HepG2 tumor cells (0.1 mL) into the right upper flanks. When the tumor volume reached 0.8~1.0 cm in diameter (2-3 weeks after inoculation), the tumor-bearing mice were used for SPECT imaging and biodistribution studies. All animal studies were approved by Clinical Center at the FMMU.
Nude mice bearing human HepG2 hepatoma were randomly divided into 5 groups and injected with ~7.4 MBq of ^99mTc-NGR with or without excess unlabelled NGR peptide (20 mg/kg). After injection of the tracer, mice were sacrificed and dissected. The radioactivity in the HepG2 tumor, major organs, and muscle were collected and weighed wet with tubes (%ID/g). Mean uptake (%ID/g) for a group of animals was calculated with standard deviations. Values were expressed as mean ± SD (n = 5/group).

HepG2 cells = assay: Cell uptake study; type: cell-based, human; settings: 37°C, ~370 kBq/well, gamma counter, n = 3, mean ± SD
Experimental: HepG2 cells were seeded into 48-well plates at a density of 2 × 10^5 cells per well 24 h prior to the experiment. HepG2 cells were then incubated with ^99mTc-labeled NGR peptides (~370 kBq/well) at 37°C for 15, 30, 60, 120, and 240 min. After incubation, tumor cells were washed three times with ice cold PBS and harvested by trypsinization with 0.25% trypsin/0.02% EDTA (Hyclone, USA). Cell suspensions were collected and measured in a gamma counter (Zhida, Shannxi, China). Cell uptake data was presented as percentage of total input radioactivity added to the culture medium after decay correction. Experiments were performed twice with triplicate wells.

[1] = In vitro stability in PBS (radio-TLC); type: physicochemical; settings: PBS pH 7.4, 37°C, 12 h incubation, percentage of parent tracer by radio-TLC
Experimental: (§1) The stability of ^99mTc-labeled NGR peptide in PBS and mouse serum at 37°C was studied at 1, 3, 6, and 12 h. Then the percentage of parent tracer was determined by radio-TLC (Table 1).

[2] = In vitro stability in mouse serum (radio-TLC); type: in vitro ADME; settings: 37°C, 12 h incubation, percentage of parent tracer by radio-TLC, read-out: ^99mTc-NGR peptide remained intact
Experimental: as §1

[3] = blood, iv, ~7.4 MBq i.v., read-out: Blood uptake
[4] = heart, iv, ~7.4 MBq i.v., read-out: Heart uptake
[5] = intestine, iv, ~7.4 MBq i.v., read-out: Intestine uptake
[6] = iv, HepG2 tumor, ~7.4 MBq i.v., read-out: Tumor uptake
[7] = kidney, iv, ~7.4 MBq i.v., read-out: Kidney uptake
[8] = liver, iv, ~7.4 MBq i.v., read-out: Liver uptake
[9] = lung, iv, ~7.4 MBq i.v., read-out: Lung uptake
[10] = muscle, iv, ~7.4 MBq i.v., read-out: Muscle uptake
[11] = spleen, iv, ~7.4 MBq i.v., read-out: Spleen uptake
[12] = stomach, iv, ~7.4 MBq i.v., read-out: Stomach uptake

- tissue uptake at 1 h (Biodistribution studies; blood, iv, 1 h postinjection, ~7.4 MBq i.v., read-out: Blood uptake): 3.82 ± 0.41 %ID/g
- tissue uptake at 4 h (Biodistribution studies; [3]): 1.75 ± 0.39 %ID/g
- tissue uptake at 8 h (Biodistribution studies; [3]): 0.98 ± 0.22 %ID/g
- tissue uptake at 12 h (Biodistribution studies; [3]): 0.75 ± 0.31 %ID/g
- tissue uptake at 1 h (Biodistribution studies; blood, iv, Blocking (1 h), coinjection of unlabelled NGR 20 mg/kg, read-out: Blood uptake): 2.56 ± 0.34 %ID/g
- tissue uptake at 1 h (Biodistribution studies; heart, iv, 1 h postinjection, ~7.4 MBq i.v., read-out: Heart uptake): 3.74 ± 0.54 %ID/g
- tissue uptake at 4 h (Biodistribution studies; [4]): 2.26 ± 0.33 %ID/g
- tissue uptake at 8 h (Biodistribution studies; [4]): 1.15 ± 0.32 %ID/g
- tissue uptake at 12 h (Biodistribution studies; [4]): 1.07 ± 0.25 %ID/g
- tissue uptake at 1 h (Biodistribution studies; heart, iv, Blocking (1 h), coinjection of unlabelled NGR 20 mg/kg, read-out: Heart uptake): 2.73 ± 0.29 %ID/g
- tissue uptake at 1 h (Biodistribution studies; intestine, iv, 1 h postinjection, ~7.4 MBq i.v., read-out: Intestine uptake): 2.65 ± 1.06 %ID/g
- tissue uptake at 4 h (Biodistribution studies; [5]): 2.18 ± 0.96 %ID/g
- tissue uptake at 8 h (Biodistribution studies; [5]): 1.93 ± 0.22 %ID/g
- tissue uptake at 12 h (Biodistribution studies; [5]): 1.6 ± 0.27 %ID/g
- tissue uptake at 1 h (Biodistribution studies; intestine, iv, Blocking (1 h), coinjection of unlabelled NGR 20 mg/kg, read-out: Intestine uptake): 2.4 ± 0.59 %ID/g
- tissue uptake at 1 h (Biodistribution studies; iv, HepG2 tumor, 1 h postinjection, ~7.4 MBq i.v., read-out: Tumor uptake): 2.52 ± 0.83 %ID/g
- tissue uptake at 4 h (Biodistribution studies; [6]): 3.03 ± 0.71 %ID/g
- tissue uptake at 8 h (Biodistribution studies; [6]): 3.26 ± 0.63 %ID/g
- tissue uptake at 12 h (Biodistribution studies; [6]): 2.81 ± 0.25 %ID/g
- tissue uptake at 1 h (Biodistribution studies; iv, HepG2 tumor, Blocking (1 h), coinjection of unlabelled NGR 20 mg/kg, read-out: Tumor uptake): 1.65 ± 0.61 %ID/g
- tissue uptake at 1 h (Biodistribution studies; kidney, iv, 1 h postinjection, ~7.4 MBq i.v., read-out: Kidney uptake): 7.93 ± 2.13 %ID/g
- tissue uptake at 4 h (Biodistribution studies; [7]): 7.03 ± 0.95 %ID/g
- tissue uptake at 8 h (Biodistribution studies; [7]): 6.21 ± 0.43 %ID/g
- tissue uptake at 12 h (Biodistribution studies; [7]): 5.96 ± 0.41 %ID/g
- tissue uptake at 1 h (Biodistribution studies; kidney, Blocking (1 h), coinjection of unlabelled NGR 20 mg/kg, read-out: Kidney uptake): 5.03 ± 0.97 %ID/g
- tissue uptake at 1 h (Biodistribution studies; liver, iv, 1 h postinjection, ~7.4 MBq i.v., read-out: Liver uptake): 4.07 ± 0.76 %ID/g
- tissue uptake at 4 h (Biodistribution studies; [8]): 3.85 ± 0.73 %ID/g
- tissue uptake at 8 h (Biodistribution studies; [8]): 3.44 ± 0.52 %ID/g
- tissue uptake at 12 h (Biodistribution studies; [8]): 3.26 ± 0.47 %ID/g
- tissue uptake at 1 h (Biodistribution studies; liver, Blocking (1 h), coinjection of unlabelled NGR 20 mg/kg, read-out: Liver uptake): 3.27 ± 0.16 %ID/g
- tissue uptake at 4 h (Biodistribution studies; [9]): 2.13 ± 0.44 %ID/g
- tissue uptake at 8 h (Biodistribution studies; [9]): 1.86 ± 0.38 %ID/g
- tissue uptake at 12 h (Biodistribution studies; [9]): 1.21 ± 0.31 %ID/g
- tissue uptake at 1 h (Biodistribution studies; lung, iv, Blocking (1 h), coinjection of unlabelled NGR 20 mg/kg, read-out: Lung uptake): 2.04 ± 0.28 %ID/g
- tissue uptake at 1 h (Biodistribution studies; muscle, iv, 1 h postinjection, ~7.4 MBq i.v., read-out: Muscle uptake): 0.53 ± 0.33 %ID/g
- tissue uptake at 4 h (Biodistribution studies; [10]): 0.46 ± 0.11 %ID/g
- tissue uptake at 8 h (Biodistribution studies; [10]): 0.43 ± 0.14 %ID/g
- tissue uptake at 12 h (Biodistribution studies; [10]): 0.39 ± 0.22 %ID/g
- tissue uptake at 1 h (Biodistribution studies; muscle, iv, Blocking (1 h), coinjection of unlabelled NGR 20 mg/kg, read-out: Muscle uptake): 0.48 ± 0.27 %ID/g
- tissue uptake at 1 h (Biodistribution studies; spleen, iv, 1 h postinjection, ~7.4 MBq i.v., read-out: Spleen uptake): 2.37 ± 0.43 %ID/g
- tissue uptake at 4 h (Biodistribution studies; [11]): 2.09 ± 0.6 %ID/g
- tissue uptake at 8 h (Biodistribution studies; [11]): 1.88 ± 0.42 %ID/g
- tissue uptake at 12 h (Biodistribution studies; [11]): 1.72 ± 0.37 %ID/g
- tissue uptake at 1 h (Biodistribution studies; spleen, Blocking (1 h), coinjection of unlabelled NGR 20 mg/kg, read-out: Spleen uptake): 1.89 ± 0.22 %ID/g
- tissue uptake at 1 h (Biodistribution studies; stomach, iv, 1 h postinjection, ~7.4 MBq i.v., read-out: Stomach uptake): 3.07 ± 0.56 %ID/g
- tissue uptake at 4 h (Biodistribution studies; [12]): 2.2 ± 0.26 %ID/g
- tissue uptake at 8 h (Biodistribution studies; [12]): 1.61 ± 0.39 %ID/g
- tissue uptake at 12 h (Biodistribution studies; [12]): 1.56 ± 0.32 %ID/g
- tissue uptake at 1 h (Biodistribution studies; stomach, Blocking (1 h), coinjection of unlabelled NGR 20 mg/kg, read-out: Stomach uptake): 3.41 ± 0.31 %ID/g
- tissue to tissue ratio at 1 h (Biodistribution studies; tumor/kidney, iv, 7.4 MBq, 1 h postinjection, read-out: Tumor-to-normal tissue uptake ratio T/K): 0.32 ± 0.15
- tissue to tissue ratio at 1 h (Biodistribution studies; tumor/liver, iv, 7.4 MBq, 1 h postinjection, read-out: Tumor-to-normal tissue uptake ratio T/L): 0.62 ± 0.33
- tissue to tissue ratio at 1 h (Biodistribution studies; tumor/muscle, iv, 7.4 MBq, 1 h postinjection, read-out: Tumor-to-normal tissue uptake ratio T/M): 4.75 ± 0.91
- tissue to tissue ratio at 8 h (Biodistribution studies; tumor/muscle, iv, 7.4 MBq, 8 h (highest value), read-out: tumor/muscle (T/NT) value): 7.58 ± 1.92
- ^99mTc-NGR peptide remained intact [1]: ~92%
- remaining at 12 h [2]: ~92%
SMILES: N=C(N)NCCC[C@@H]1NC(=O)CNC(=O)[C@H](CC(N)=O)NC(=O)[C@@H](NC(=O)CNC(=O)CNC(=O)[C@@H](N)Cc2ccc(O)cc2)CSSC[C@@H](C(=O)O)NC1=O [^99mTc-NGR, metal not drawn] (H-YGGCNGRC-OH; disulfide 4-8)
- uptake in HepG2 cells (percentage of total input radioactivity) (HepG2 cells; 15 min): about 0.49 ± 0.05%
- uptake in HepG2 cells (percentage of total input radioactivity) (HepG2 cells; 2 h (maximum)): 1.52 ± 0.13%
- uptake in HepG2 cells (percentage of total input radioactivity) (HepG2 cells; 4 h): About 1.35 ± 0.27%
